Values quoted from earlier work as cited in patent US20030232078A1, “Formulation & dosage form for the controlled delivery of therapeutic agents” (priority 2001, published 2003).

Conditions: conventional formulations; well known
For `CS(=O)(=O)Nc1ccc(F)c([C@@H](O)CN)c1.Cl` [ABT-232], the “absorption in the lower GI tract” value is listed as “not absorbed in significant amounts”.
For `C[C@@](Cc1ccc(O)c(O)c1)(NN)C(=O)O` [carbidopa], the “absorption in the lower GI tract” value is given as “not absorbed in significant amounts”.
In the case of `N[C@@H](Cc1ccc(O)c(O)c1)C(=O)O` [L-dopa], the “absorption in the lower GI tract” value is given as “not absorbed in significant amounts”.
